From patent EP4725957A1, “GROUP OF CYCLIC ALKALINE LIPOPEPTIDE COMPOUNDS, AND PREPARATION METHOD THEREFOR AND USE THEREOF” (Institute of Medicinal Biotechnology, Chinese Academy of …, priority 2023, dated 2024)
Converted amounts (≈) assume the structure as drawn. Bridge positions count the residues as written; N and C are the ends. Square brackets hold non-standard residues; d marks the D form. Peptide text beside a SMILES is read from it. * marks the point of attachment. Heptanoyl(6-Me) = CC(C)CCCCC(=O)*; Dab = NCC[C@H](N)C(=O)O; Dap = NC[C@H](N)C(=O)O

How the values were obtained:
[1] = tested on: Pseudomonas aeruginosa PAE19-3; assay type: cell-based; settings: Pseudomonas aeruginosa PAE19-3
How it was run: (§1)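 MIC by CLSI broth microdilution; MH broth; final drug 64–0.03 mg/L, 2-fold; inoculum (2-4) × 10^5 CFU/mL from 0.5 McFarland suspension of 18-24 h colonies; 35-37°C, 16-20 h; growth controls included.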

[2] = tested on: Acinetobacter baumannii ABA19-1; assay type: cell-based; settings: Acinetobacter baumannii ABA19-1
How it was run: as §1

[3] = tested on: Escherichia coli ATCC BAA-2523; assay type: cell-based; settings: Escherichia coli ATCC BAA-2523
How it was run: as §1

[4] = tested on: Pseudomonas aeruginosa ATCC 27853; assay type: cell-based; settings: Pseudomonas aeruginosa ATCC27853
How it was run: as §1

[5] = tested on: Escherichia coli ATCC BAA-2340 (KPC); assay type: cell-based; settings: Escherichia coli ATCC BAA-2340 (KPC)
How it was run: as §1

[6] = tested on: Klebsiella pneumoniae ATCC BAA-1705 (KPC); assay type: cell-based; settings: Klebsiella pneumoniae ATCC BAA-1705 (KPC)
How it was run: as §1

[7] = tested on: Klebsiella pneumoniae KPN+19-15; assay type: cell-based; settings: Klebsiella pneumoniae KPN 19-15
How it was run: as §1

[8] = tested on: Acinetobacter baumannii NCTC 13304 (OXA-27); assay type: cell-based; settings: Acinetobacter baumannii NCTC 13304 (OXA-27)
How it was run: as §1

[9] = tested on: Healthy ICR mice; assay: Acute toxicity test in healthy mice, single tail vein injection; assay type: in vivo; settings: within 7 days
Procedure: (§2) Healthy ICR mice aged 5-6 weeks were selected, with 5-10 mice in each group, and administered via a single tail vein injection at an administration volume of 20 mL/kg. In the preliminary test, the drug dose concentrations that caused 100% mortality and no mortality in mice after a single intravenous injection were determined. Based on this dose range, 4-5 dose groups were set up, with a dose ratio of 1:0.5 to 1:0.8 between adjacent groups. The mortality of animals within 7 days after administration was recorded. According to the mortality rate of experimental animals in each group, the median lethal dose (LD50) of the test samples, i.e., the dose causing 50% mortality of the tested animals, was calculated by the Bliss method.

[10] = as above; assay type: in vivo; settings: mouse, in vivo, iv; ICR mice, single tail vein injection, Bliss method
Procedure: as §2

**Q.** With `CC(C)CCCCC(=O)N[C@@H](CCN)C(=O)N[C@H](C(=O)N[C@@H](CN)C(=O)N[C@H]1CCNC(=O)[C@H]([C@@H](C)O)NC(=O)[C@H](CCN)NC(=O)[C@H](CCN)NC(=O)[C@H]([C@@H](C)O)NC(=O)[C@@H](Cc2ccccc2)NC(=O)[C@H](CCN)NC1=O)[C@@H](C)O` [Compound 7, 6-methylheptanoyl-Dab-Thr-Dap-ring(4-10)[Dab-Dab-D-Phe-Thr-Dab-Dab-Thr]] ({Heptanoyl(6-Me)}-[Dab]T[Dap][Dab][Dab][dF]T[Dab][Dab]T; lactam 4-C) as the molecule, how does the MIC [1] read?
**A.** 0.125 µg/mL (≈ 0.107 µM)

**Q.** What about the MIC [2] of the same molecule?
**A.** ≤0.03 µg/mL

**Q.** What about the MIC [3] of the same molecule?
**A.** ≤0.03 µg/mL

**Q.** What about the MIC [4] of the same molecule?
**A.** ≤0.03 µg/mL

**Q.** And the MIC [5]?
**A.** ≤0.03 µg/mL

**Q.** What about the MIC [6] of the same molecule?
**A.** ≤0.03 µg/mL

**Q.** What about the MIC [7] of the same molecule?
**A.** ≤0.03 µg/mL

**Q.** What about the MIC [8] of the same molecule?
**A.** ≤0.03 µg/mL

**Q.** What about the mortality rate ([9]; single tail vein injection 15.36 mg/kg) of the same molecule?
**A.** 0%

**Q.** What about the mortality rate ([9]; single tail vein injection 19.2 mg/kg) of the same molecule?
**A.** 12.5%

**Q.** What about the mortality rate ([9]; single tail vein injection 24 mg/kg) of the same molecule?
**A.** 25%

**Q.** What about the mortality rate ([9]; single tail vein injection 30 mg/kg) of the same molecule?
**A.** 100%

**Q.** And the LD50 at 168 h [10]?
**A.** 24.4 mg/kg
